Consider four compounds from patent US20140275049A1, “SUBSTITUTED PYRAZOLE ANALOGS As RAR ANTAGONISTS” (Eli Lilly and Company, priority 2011, published 2014).

In general, Kb refers to the equilibrium dissociation constant of an antagonist, usually derived from a functional assay. Read a high Kb as a less potent antagonist.

Experiment [1] concerns the target T1, Gal4 (DBD) RARγ (LBD) hybrid receptor (Homo sapiens, UniProt P13631).
T1 construct: Gal4 (DBD) RARγ (LBD), or the Gal4 (DBD) RARβ (LBD) hybrid receptor; expressed in transfected cells; host or cells: HEK 293
T1 sequence (P13631 185-419 limits assumed): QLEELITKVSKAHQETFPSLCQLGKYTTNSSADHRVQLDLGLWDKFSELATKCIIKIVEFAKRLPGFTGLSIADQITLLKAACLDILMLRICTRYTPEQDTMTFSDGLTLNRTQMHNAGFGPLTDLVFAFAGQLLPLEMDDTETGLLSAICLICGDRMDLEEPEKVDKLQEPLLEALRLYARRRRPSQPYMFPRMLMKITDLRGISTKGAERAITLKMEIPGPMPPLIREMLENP
Kind of experiment: Gal4 reporter assay to determine RAR receptor antagonist activity. Format: cell-based. The note with it: HEK 293 cells, antagonist mode against EC80 ATRA, 24 hours, luciferase. An excerpt: For cell-based assays, human embryonic kidney HEK 293 cells are transfected with receptor and reporter gene plasmids using Fugene. The reporter plasmid containing five Gal4 binding sites and a major late promoter of adenovirus upstream of the luciferase reporter cDNA is transfected together with a plasmid constitutively expressing the Gal4 DNA binding domain (DBD) and the RARα ligand binding domain (LBD), Gal4 (DBD) RARγ (LBD), or the Gal4 (DBD) RARβ (LBD) hybrid receptor using a SV40 promoter. Cells are transfected in poly-d-lysine coated T175 cm flasks in DMEM media with 5% charcoal-stripped Fetal Bovine Serum (FBS). After an overnight incubation, transfected cells are trypsinized, plated in opaque 96 well dishes in DMEM media containing 5% charcoal-stripped FBS, incubated for 4 h, and then exposed to 0.17 nM to 10 μM of test compound in half log dilutions. To determine the antagonist activity of the test compound, EC80 concentrations of agonist for each receptor is also added to the media (15 nM all-trans retinoic acid, ATRA, for RARα and RARγ, 10 nM of ATRA for RARβ). After 24 hours of incubation with compounds, cells are lysed and luciferase activity is determined. Data are fitted to a four parameter-fit logistics to determine IC50 values. The maximum % inhibition is determined versus the cellular response to 0.25% DMSO in the absence of ATRA.
(Reporter assays use an easily measured gene product as a stand-in for the process of interest.)

For another experiment, the target named is T2, human RARγ LBD (Homo sapiens, UniProt P13631).
T2 sequence (P13631 185-419 limits assumed): T1 sequence (P13631 185-419 limits assumed)
T2 sequence (P19793 227-458 partner limits assumed): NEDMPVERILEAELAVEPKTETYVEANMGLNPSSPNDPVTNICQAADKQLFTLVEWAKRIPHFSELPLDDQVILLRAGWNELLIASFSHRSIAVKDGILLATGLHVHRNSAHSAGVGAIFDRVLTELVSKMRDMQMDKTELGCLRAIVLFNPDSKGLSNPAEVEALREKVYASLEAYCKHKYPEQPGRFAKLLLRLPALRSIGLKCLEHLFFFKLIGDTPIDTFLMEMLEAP
Kind of experiment: RARγ SRC-2 coactivator recruitment assay (agonist mode). The class given is biochemical. The note with it: maximum stimulation relative to fitted top of TTNPB standard curve. An excerpt: The RARγ SRC-2 Coactivator recruitment assay utilizes the ligand binding domain (LBD) of RARγ with its binding partner RXRα to determine the ability of a compound to enhance the recruitment of the co-activator SRC-2 to the receptor complex. Enhanced recruitment of SRC2 is known to be reflective of an agonist confirmation of the RARγ receptor. The RARγ LBD and SRC2 peptides are covalently linked to AlphaScreen® beads such that enhanced protein-protein interactions can be assessed by energy transfer. Coactivator recruitment assays are performed using AlphaScreen® technology (Perkin Elmer USA) using a 6X-Histidine tagged human RARγ LBD and GST tagged hSRC-2 protein. Unlabelled RXRα LBD is added as a silent heterodimer partner. Nickel chelated donor beads are used to bind RARγ LBD and anti-GST acceptor beads are used to bind SRC-2. Serially diluted test compound is added in concentrations ranging from 10 μM to 500 pM to 20 nM human RARγ receptor, 25 nM RXRα LBD, and 5 nM SRC-2 protein in a buffer containing 25 mM HEPES (pH 7.5), 100 mM NaCl, 0.1% Bovine Serum Albumin (fraction V), and 2 mM DTT containing 16.67 μg/ml of nickel chelated donor beads and 16.67 μg/ml of anti GST acceptor beads in a final volume of 15 μl per well in a white 384 shallow well proxiplate. The RAR agonist, TTNPB, is used as a standard on each plate and is added in concentrations ranging from 100 nM to 5 pM. After incubating for 12 hours at room temperature, read the plate on a Perkin Elmer Envision using standard AlphaScreen® parameters for excitation and fluorescence. Use the data to calculate an EC50 for compounds after fitting the dose-response curves to a 4-parameter logistic fit. Calculate the percent stimulation using the fitted top of the TTNPB standard curve as a comparator.

`CN1CCN(C(=O)c2ccc(-n3nc(-c4ccc(C(=O)O)cc4)cc3-c3cc(C(C)(C)C)cc(C(C)(C)C)c3)cc2)CC1` [Example 1, 4-[5-(3,5-Di-tert-butylphenyl)-1-[4-(4-methylpiperazine-1-carbonyl)phenyl]pyrazol-3-yl]benzoic Acid] yielded a Kb in experiment [1] of 23 ± 5.36 nM. On human RARγ LBD, the “% Stimulation” value is listed as 0.2%.

With `CC(C)(C)c1cc(-c2cc(-c3ccc(C(=O)O)cc3)nn2-c2ccc(C(=O)N3CCOCC3)cc2)cc(C(C)(C)C)n1` [Example 8, 4-[5-(2,6-Di-tert-butyl-4-pyridyl)-1-[4-(morpholine-4-carbonyl)phenyl]pyrazol-3-yl]benzoic acid], the Kb in experiment [1] came out at 28.7 nM. For the same compound, on human RARγ LBD, the “% Stimulation” value was determined as 0.6%.

With `CC(C)Sc1cc(-c2cc(-c3ccc(C(=O)O)cc3)nn2-c2ccc(C(=O)N(C)C)cc2)cc(C(C)(C)C)c1` [Example 12, 4-[5-(3-tert-Butyl-5-isopropylsulfanyl-phenyl)-1-[4-(dimethylcarbamoyl)phenyl]pyrazol-3-yl]benzoic Acid], in experiment [1], the Kb came out at 30.2 nM. Further, the “% Stimulation” value on human RARγ LBD is given as 8.4%.

Compound `CC(C)(C)c1cc(-c2cc(-c3ccc(C(=O)O)cc3)nn2-c2ccc(S(C)(=O)=O)cc2)cc(C(C)(C)C)c1` [Example 19, 4-[5-(3,5-Di-tert-butylphenyl)-1-(4-methylsulfonylphenyl)pyrazol-3-yl]benzoic Acid] had a Kb in experiment [1] of 34.6 nM. On human RARγ LBD, the “% Stimulation” value is −3%.
